Consider 1 compound from publication PMC7792806, “Development of Second Generation Activity-Based Chemical Probes for Sirtuins” (Molecules, 2020).

Assay [1] concerns the target SIRT6 (Homo sapiens, UniProt Q8N6T7). The assay can be described thus: Western blot of H3K9Ac in HEK293 cells. The class given is cell-based. The text has this:
The ABPs structurally mimic acylated lysine substrates. However, the presence of substituents could potentially alter their cell permeability, cellular distribution, and target engagement ability. It is essential to determine if these probes are cell permeable and capable of inhibiting endogenous sirtuin activity. The sirtuin family of proteins are often referred to as the class III histone deacetylases (HDACs). Unlike class I and class II HDACs, which are Zn^2+-dependent, sirtuins are NAD^+-dependent. […] Similarly, other sirtuins may not be the only deacetylase of their endogenous substrates. Therefore, the inhibitory effect of the other ABPs may only become apparent when class I/II HADCs are inhibited at the same time. HEK293 cells were cultured in the presence of probe 2C and/or other HDAC inhibitors. Subsequently, the cell lysates were collected and probed for acetylated H3K9 (H3K9Ac), which is an endogenous substrate of SIRT6.
The cell lysate was resolved on a 10% SDS-PAGE gel and transferred to Immobilon PVDF transfer membrane (Millipore, Burlington, MA, USA). The blot was blocked with 5% nonfat milk, probed with primary antibody targeting H3K9Ac (Sigma-Aldrich, St. Louis, MO, USA), H3 (Abcam, Cambridge, MA, USA), acetyllysine or CPS1 (Cell Signaling Technology, Beverly, MA, USA), washed with PBST, followed by incubation with anti-rabbit or anti-mouse HRP conjugated secondary antibody. Then, the signal was detected by SuperSignal West Pico Chemiluminescent substrate (Thermo Fisher Scientific, Rockford, IL, USA).

The target of assay [2] is T1, wild-type SIRT6 (wtSIRT6) (Homo sapiens, UniProt Q8N6T7).
T1 construct: host or cells: E. coli (inferred from b12)
T1 sequence (Q8N6T7 whole entry): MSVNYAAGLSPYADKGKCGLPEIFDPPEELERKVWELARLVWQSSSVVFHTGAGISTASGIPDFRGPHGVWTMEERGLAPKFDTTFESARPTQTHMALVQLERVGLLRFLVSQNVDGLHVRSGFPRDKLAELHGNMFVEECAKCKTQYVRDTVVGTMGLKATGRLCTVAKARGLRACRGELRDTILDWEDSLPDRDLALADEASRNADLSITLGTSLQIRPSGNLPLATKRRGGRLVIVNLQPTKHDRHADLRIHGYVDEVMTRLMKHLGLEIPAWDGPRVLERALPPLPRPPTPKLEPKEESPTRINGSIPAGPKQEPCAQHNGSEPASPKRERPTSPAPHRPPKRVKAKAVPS
Kind of assay: Labeling of wild-type SIRT6. The assay is classed as biochemical. The protocol: Remarkably, probe 2C was also able to label individual sirtuin isoforms in cell lysates. HEK293 cells overexpressing human SIRT2 were lysed, and the lysate was subjected to the labeling by 10 μM probe 2C.
A typical labeling experiment was performed as follows: in a 0.7 mL Eppendorf tube, purified recombinant human sirtuin (10 μM) was incubated with NAD^+ (500 μM) and activity-based probe at 37 °C for 10 min. The sample was transferred to a clear-bottom 96-well plate, placed on ice, and irradiated at 365 nm with a UV-lamp in a cold room. Subsequently, ingredients of the “click-chemistry” including azide-fluor 545, CuSO4, reducing agent (tris(2-carboxyethyl)phosphine, TCEP) and stabilizing agent (tris[(1-benzyl-1H-1,2,3-triazol-4-yl)methyl]amine, TBTA) were added, and the sample was gently agitated at 250 rpm on a microshaker at room temperature for 30 min. Then, the sample was resolved by SDS-PAGE. To […] the signal to noise ratio, the gel was destained to eliminate non-specific binding of free dyes. This was done in a mixture of methanol/distilled water/acetic acid (v/v/v = 4/5/1) at ambient temperature for 4 h. Then, destained gel was analyzed with in-gel fluorescence scanning using a Biorad ChemiDoc MP imager (excitation 532 nm, 580 nm cut-off filter and 30 nm band-pass). Finally, Coomassie blue staining was applied to provide loading control.

Each structure is given as a SMILES string.

Chain of SIRT6 (Q8N6T7 whole entry): as above

In the case of `C#CCCCC1(CCC(=O)N[C@@H](CCCCNC(=S)CCCCCCCCCCCCC)C(=O)N[C@@H](C)C(=O)N[C@@H](C)C(=O)OC)N=N1` [Probe 2C], in assay [1] (combined with TSA), the “H3K9Ac level, combination with TSA” value is on record as “significantly elevated level of H3K9Ac”. Moreover, the “H3K9Ac level, treatment alone” value in assay [1] (single agent) is “did not cause any appreciable changes”. In assay [2], the “labeling of wtSIRT6” value was “concentration-dependent labeling of wild-type SIRT6”.
